Counter-ions that a name gives are not always drawn. Like-named read-outs stand apart in the source and are kept apart here.
How the values were obtained:
Type in all cases: cell-based
[1] = test system: endosomal acidification in Vero cells; assay: cells; settings: for inhibition at 40 µM: Chlorocebus sabaeus, read-out: Percent Inhibition (%) of endosomal acidification
Description: Inhibition of endosomal acidification was measured using LysoTracker Red DND-99 (ThermoFisher). […] Data were plotted using Prism 9 (GraphPad).

[2] = test system: SARS-CoV-2 PsV (wild-type S protein); assay: microbe, parasite or virus in culture; settings: Severe acute respiratory syndrome coronavirus 2, HeLa-ACE2, read-out: IC50, inhibition of PsV entry, HeLa-ACE2 (-TMPRSS2), wild-type S PsV
[3] = Cell viability (CellTiter-Glo), HeLa-ACE2 cells; settings: human, read-out: half-cytotoxic concentration (CC50)
Description: In order to confirm that the reduced luminescence was not related to cell toxicity, HeLa-ACE2 and Vero-TMPRSS2 cell viability upon incubation with serial dilutions of the sample compounds were tested in parallel to the neutralization assay. […] Cell viability was monitored by adding 50 μL of CellTiter-Glo reagent (Promega) to 200 μL of media containing cells. After a 10-minute incubation, 100 μL volume was transferred to a 96-well white plate (Sigma-Aldrich) to measure luminescence using a Synergy Neo2 Multi-Mode Assay Microplate Reader (Biotek Instruments). As an additional measure of cell toxicity Vero cell, lacking TMPRSS2, viability was measured using PrestoBlue (ThermoFisher). 10,000 cells/well of pre-seeded Vero cells were cocultured with the same serial dilutions of the sample compounds at 37°C for 48 h. At 48 h, 10 μL of PrestoBlue (ThermoFisher) was added to 100 μL of media containing cells. After a 2 h incubation, fluorescence was measured using a Spectromax m5e (Molecular Devices) at an excitation of 555 nm and emission of 585 nm. Data were plotted and half-cytotoxic concentration (CC50) values were calculated using Prims 9 (GraphPad).

[4] = Vero cells, 40 μM, singlet (n=1)

CN1CCc2c(c3ccccc3n2Cc2ccccc2)C1.CN1CCc2c(c3ccccc3n2Cc2ccccc2)C1.O=S(=O)(O)c1cccc2c(S(=O)(=O)O)cccc12 [MEBHYDROLIN NAPHTHALENESULFONATE]
Percent Inhibition (%) of endosomal acidification [1, 4]: 52%

OC(c1cc(C(F)(F)F)nc2c(C(F)(F)F)cccc12)C1CCCCN1 (centres unmarked) [MEFLOQUINE]
inhibition at 40 µM [1, 4]: 64%

CN1C[C@H](CNC(=O)OCc2ccccc2)C[C@@H]2c3cccc4c3c(cn4C)C[C@H]21 [METERGOLINE]
inhibition at 40 µM [1, 4]: 53%

COC(=O)CC[C@@H](C)[C@H]1CC[C@H]2[C@@H]3CC[C@@H]4C[C@H](O)CC[C@]4(C)[C@H]3C[C@H](O)[C@]12C [METHYL DEOXYCHOLATE]
inhibition at 40 µM [1, 4]: 63%

Cc1cc(C(C)(C)CC(C)(C)C)ccc1OCCOCC[N+](C)(C)Cc1ccccc1.[Cl-] [METHYLBENZETHONIUM CHLORIDE]
Percent Inhibition (%) of endosomal acidification [1, 4]: 85%

CN(C)c1ccc2nc3ccc(=[N+](C)C)cc-3sc2c1 [METHYLENE BLUE]
inhibition at 40 µM [1, 4]: 85%

Clc1ccc(COC(Cn2ccnc2)c2ccc(Cl)cc2Cl)c(Cl)c1 (centres unmarked) [MICONAZOLE NITRATE]
inhibition at 40 µM [1, 4]: 81%

O=C1c2c(O)ccc(O)c2C(=O)c2c(NCCNCCO)ccc(NCCNCCO)c21 [MITOXANTRONE HYDROCHLORIDE]
inhibition at 40 µM [1, 4]: 80%

OC(CNCC(O)C1CCc2cc(F)ccc2O1)C1CCc2cc(F)ccc2O1 (centres unmarked) [NEBIVOLOL HYDROCHLORIDE]
inhibition at 40 µM [1, 4]: 52%

CCCCCCCCCc1ccc(OCCOCCOCCOCCOCCOCCOCCOCCOCCO)cc1 [NONOXYNOL-9]
inhibition at 40 µM [1, 4]: 91%

Fc1ccc([C@@H]2CCNC[C@H]2COc2ccc3c(c2)OCO3)cc1 [PAROXETINE HYDROCHLORIDE]
inhibition at 40 µM [1, 4]: 65%

OC1(c2ccc(Cl)c(C(F)(F)F)c2)CCN(CCCC(c2ccc(F)cc2)c2ccc(F)cc2)CC1 [PENFLURIDOL]
inhibition at 40 µM [1, 4]: 61%

C1CCC(C(CC2CCCCN2)C2CCCCC2)CC1 (centres unmarked) [PERHEXILINE MALEATE]
inhibition at 40 µM [1, 4]: 92%

OCCN1CCN(CCCN2c3ccccc3Sc3ccc(Cl)cc32)CC1 [PERPHENAZINE]
inhibition at 40 µM [1, 4]: 93%

O=c1[nH]c2ccccc2n1C1CCN(CCCC(c2ccc(F)cc2)c2ccc(F)cc2)CC1 [PIMOZIDE]
inhibition at 40 µM [1, 4]: 54%

CC(=O)c1ccc2c(c1)N(CCCN1CCC(CCO)CC1)c1ccccc1S2 [PIPERACETAZINE]
inhibition at 40 µM [1, 4]: 78%

CN1CCC(=C2c3ccccc3CCc3sccc32)CC1.O=C(O)CC(O)C(=O)O [PIZOTYLINE MALATE]
Percent Inhibition (%) of endosomal acidification [1, 4]: 50%

COc1cc2nc(N3CCN(C(=O)c4ccco4)CC3)nc(N)c2cc1OC [PRAZOSIN HYDROCHLORIDE]
inhibition at 40 µM [1, 4]: 76%

COc1cc(NC(C)CCCN)c2ncccc2c1 (centres unmarked) [PRIMAQUINE PHOSPHATE]
inhibition at 40 µM [1, 4]: 68%

CCCC(C(=O)OCCN(CC)CC)(c1ccccc1)c1ccccc1 [PROADIFEN HYDROCHLORIDE]
inhibition at 40 µM [1, 4]: 59%

CN1CCN(CCCN2c3ccccc3Sc3ccc(Cl)cc32)CC1 [PROCHLORPERAZINE EDISYLATE]
inhibition at 40 µM [1, 4]: 73%

Nc1ccc2cc3ccc(N)cc3nc2c1 [PROFLAVINE HEMISULFATE]
inhibition at 40 µM [1, 4]: 54%

CN(C)CCCN1c2ccccc2Sc2ccccc21 [PROMAZINE HYDROCHLORIDE]
inhibition at 40 µM [1, 4]: 75%

CC(CN1c2ccccc2Sc2ccccc21)N(C)C (centres unmarked) [PROMETHAZINE HYDROCHLORIDE]
inhibition at 40 µM [1, 4]: 56%

COc1ccc2nc3cc(Cl)ccc3c(Nc3cc(CN4CCCC4)c(O)c(CN4CCCC4)c3)c2n1.O=P(O)(O)O.O=P(O)(O)O.O=P(O)(O)O.O=P(O)(O)O [PYRONARIDINE TETRAPHOSPHATE]
Percent Inhibition (%) of endosomal acidification [1, 4]: 70%

CCN(CC)CCCC(C)Nc1c2ccc(Cl)cc2nc2ccc(OC)cc12 (centres unmarked) [QUINACRINE HYDROCHLORIDE]
inhibition at 40 µM [1, 4]: 63%

O=C(Nc1ccc(Oc2ccc(Cl)cc2)c(Cl)c1)c1cc(I)cc(I)c1O [RAFOXANIDE]
inhibition at 40 µM [1, 4]: 68%

O=C(c1ccc(OCCN2CCCCC2)cc1)c1c(-c2ccc(O)cc2)sc2cc(O)ccc12 [RALOXIFENE HYDROCHLORIDE]
inhibition at 40 µM [1, 4]: 56%

Cl.N=C(N/N=C/c1ccc(Cl)cc1)N/N=C/c1ccc(Cl)cc1 [ROBENIDINE HYDROCHLORIDE]
Percent Inhibition (%) of endosomal acidification [1, 4]: 76%

CCC(C)(C)C(=O)O[C@H]1C[C@@H](C)C=C2C=C[C@H](C)[C@H](CC[C@@H]3C[C@@H](O)CC(=O)O3)[C@H]21 [SIMVASTATIN]
inhibition at 40 µM [1, 4]: 84%

[H]/N=C(/N)N[C@H]1[C@H](O)[C@@H](O)[C@H](O[C@@H]2O[C@@H](C)[C@](O)(C=O)[C@H]2O[C@@H]2O[C@@H](CO)[C@H](O)[C@@H](O)[C@@H]2NC)[C@@H](N/C(N)=N\[H])[C@@H]1O [STREPTOMYCIN SULFATE]
inhibition at 40 µM [1, 4]: 101%

CCCCCCCCNC(C)C(O)c1ccc(SC(C)C)cc1 (centres unmarked) [SULOCTIDIL]
inhibition at 40 µM [1, 4]: 94%

CC/C(=C(\c1ccccc1)c1ccc(OCCN(C)C)cc1)c1ccccc1 [TAMOXIFEN CITRATE]
inhibition at 40 µM [1, 4]: 82%

CC(C)N1CCN(c2ccc(OCC3COC(Cn4cncn4)(c4ccc(Cl)cc4Cl)O3)cc2)CC1 (centres unmarked) [TERCONAZOLE]
inhibition at 40 µM [1, 4]: 64%

CCC(=O)O[C@H]1CC[C@H]2[C@@H]3CCC4=CC(=O)CC[C@]4(C)[C@H]3CC[C@]12C [TESTOSTERONE PROPIONATE]
inhibition at 40 µM [1, 4]: 64%

COc1ccc2cc1Oc1ccc(cc1)C[C@H]1c3cc(c(OC)cc3CCN1C)Oc1c(OC)c(OC)cc3c1[C@H](C2)N(C)CC3 [TETRANDRINE]
inhibition at 40 µM [1, 4]: 50%

C[CH2][Hg][S]c1ccccc1C(=O)[O-].[Na+] [THIMEROSAL]
Percent Inhibition (%) of endosomal acidification ([1]; 40 µM): 81%

CSc1ccc2c(c1)N(CCC1CCCCN1C)c1ccccc1S2 (centres unmarked) [THIORIDAZINE HYDROCHLORIDE]
inhibition at 40 µM ([1]; Vero): 92%

CN1CCN(CC/C=C2/c3ccccc3Sc3ccc(S(=O)(=O)N(C)C)cc32)CC1 [THIOTHIXENE]
inhibition at 40 µM [1, 4]: 80%

CCN(CC)CCOc1ccc2c(c1)C(=O)c1cc(OCCN(CC)CC)ccc1-2 [TILORONE]
inhibition at 40 µM [1, 4]: 59%

Clc1ccc(C(Cn2ccnc2)OCc2ccsc2Cl)c(Cl)c1 (centres unmarked) [TIOCONAZOLE]
inhibition at 40 µM ([1]; Vero): 94%

Cc1cc2nc3ccc(N(C)C)cc3[s+]c2cc1N [TOLONIUM CHLORIDE]
inhibition at 40 µM [1, 4]: 84%

C[C@H]1CC[C@]2(NC1)O[C@H]1C[C@H]3[C@@H]4CC[C@H]5C[C@@H](O[C@@H]6O[C@H](CO)[C@H](O[C@@H]7O[C@H](CO)[C@@H](O)[C@H](O[C@@H]8OC[C@@H](O)[C@H](O)[C@H]8O)[C@H]7O[C@@H]7O[C@H](CO)[C@@H](O)[C@H](O)[C@H]7O)[C@H](O)[C@H]6O)CC[C@]5(C)[C@H]4CC[C@]3(C)[C@H]1[C@@H]2C [TOMATINE]
inhibition at 40 µM [1, 4]: 72%

CN(C)CCOc1ccc(/C(=C(/CCCl)c2ccccc2)c2ccccc2)cc1 [TOREMIPHENE CITRATE]
Percent Inhibition (%) of endosomal acidification [1, 4]: 68%

COC(=O)C1(C)CCCC2(C)c3ccc(O)c(C(C)C)c3CCC12 (centres unmarked) [TOTAROL-19-CARBOXYLIC ACID, METHYL ESTER]
Percent Inhibition (%) of endosomal acidification [1, 4]: 66%

CC(C)c1c(O)ccc2c1CC[C@H]1C(C)(C)CCC[C@]21C [TOTAROL]
inhibition at 40 µM [1, 4]: 74%

Oc1cc(Cl)ccc1Oc1ccc(Cl)cc1Cl [TRICLOSAN]
inhibition at 40 µM [1, 4]: 96%

CN1CCN(CCCN2c3ccccc3Sc3ccc(C(F)(F)F)cc32)CC1 [TRIFLUOPERAZINE HYDROCHLORIDE]
inhibition at 40 µM [1, 4]: 77%

CN(C)CCCN1c2ccccc2Sc2ccc(C(F)(F)F)cc21 [TRIFLUPROMAZINE HYDROCHLORIDE]
inhibition at 40 µM [1, 4]: 86%

CC(CN(C)C)CN1c2ccccc2Sc2ccccc21.CC(CN(C)C)CN1c2ccccc2Sc2ccccc21.O=C(O)C(O)C(O)C(=O)O (centres unmarked) [TRIMEPRAZINE TARTRATE]
Percent Inhibition (%) of endosomal acidification [1, 4]: 78%

CC(CN(C)C)CN1c2ccccc2CCc2ccccc21 (centres unmarked) [TRIMIPRAMINE MALEATE]
inhibition at 40 µM [1, 4]: 56%

Cc1ccc(Sc2ccccc2N2CCNCC2)c(C)c1 [VORTIOXETINE HYDROBROMIDE]
inhibition at 40 µM [1, 4]: 63%

CCOC(=O)Nc1ccc(NCc2ccc(F)cc2)nc1N [[…]]
inhibition at 40 µM [1, 4]: 50%

COc1c(O)cc2oc3cc(O)c(CC=C(C)C)c(O)c3c(=O)c2c1CC=C(C)C [alpha-MANGOSTIN]
Percent Inhibition (%) of endosomal acidification [1, 4]: 86%

CCN(CC)Cc1cc(Nc2ccnc3cc(Cl)ccc23)ccc1O [amodiaquine]
IC50 [2]: 2500 nM
CC50 [3]: 34.7 µM

CCN(CC)CCCC(C)Nc1ccnc2cc(Cl)ccc12 (centres unmarked) [chloroquine]
IC50 [2]: 2600 nM
CC50 [3]: 25.7 µM

CCN(CC)CCCC(C)Nc1c2ccc(Cl)cc2nc2ccc(OC)cc12 (centres unmarked) [quinacrine]
IC50 [2]: 900 nM
CC50 [3]: 1.7 µM

ABAMECTIN (avermectin B1a shown)
Percent Inhibition (%) of endosomal acidification [1, 4]: 59%

BENZALKONIUM CHLORIDE
Percent Inhibition (%) of endosomal acidification [1, 4]: 88%

BITHIONATE SODIUM
Percent Inhibition (%) of endosomal acidification [1, 4]: 67%

CHLOROPHYLLIDE Cu COMPLEX Na SALT
Percent Inhibition (%) of endosomal acidification [1, 4]: 77%

MEPARTRICIN
Percent Inhibition (%) of endosomal acidification [1, 4]: 52%
